Measured values taken from patent US20240254508A1, “Multi-Genome Editor Construct and Uses Thereof” (Colossal Biosciences Inc., priority 2023, published 2024).

Columns and labels:
[1] = tested on: Super Editor incorporated HEK293T cells; assay: Editing enzyme induction in Super Editor incorporated HEK293T cells (fluorescent imaging / FACS); type: cell-based; conditions: 1/5/10 μg/mL doxycycline, 30/120/300 μg/mL cumate, 10/40/100 μM TMP, 0.25/1.25/6.25 μM Shield 1, 24-72 hours after treatment
Procedure: FIGS. 3A-3D show fluorescence-activated cell sorting (FACS) of individual editor induction by super editor integrated HEK293T cells. FACS analysis was done for doxycycline induced Cas9 expression (FIG. 3A), cumate induced ABE expression (FIG. 3B), trimethoprim induced CBE expression (FIG. 3C), and shield 1 induced CGBE expression (FIG. 3D). Cells were fixed 72 hours after treatment for FACS quantification. Bar graphs plotting the induction ratios of each dose curve are provided for each different genome editor enzyme induction (FIGS. 3A-3D).
Incorporation of Super Editor in HEK293T cells: 300,000 HEK293T cells were transfected by 4 μg of Super Editor plasmid and 3 μg PiggyBac transposase plasmid using 10 μL of Lipofectamine 2000 according to the manufacturer's protocol in a 6-well plate format. 2 μg/mL doxycycline was supplemented to the cells 48 hours in advance. The transfected cells were enriched twice by Fluorescence-activated cell sorting (FACS) gated with doxycycline induced TagRFP657 (far red) fluorescent signals 1 week and 3 weeks after transfection. The 1st enrichment selected the top 0.2% (10,000 cells) of the TagRFP657+ population. The 2nd enrichment selected the top 5% (374,000 cells) of the TagRFP657+ population.
Doxycycline induced Cas9, reported by TagRFP657 (far red); cumate induced ABE, reported by TagBFP (blue); trimethoprim induced CBE reported by, eGFP (green); Shield 1 induced CGBE, reported by mCherry (red). Cells were analyzed by fluorescent imaging or FACS 24-72 hours after treatment. FACS analysis was performed on 4% PFA fixed samples (FIGS. 3A-3D). Inducers were refreshed everyday with new media.

[2] = tested on: HEK293T cells; assay: Transient induction of single module plasmids in HEK293T cells; type: cell-based; conditions: 2 μg/ml doxycycline, 120 μg/ml cumate, 10 μM TMP, 6.25 μM shield 1
Procedure: HEK293T cells were transfected with the single module plasmids comprising the corresponding regulatory element. The HEK293T cells were treated with the corresponding inducers to generate expression of the genome editing enzyme along with the fluorescent marker accompanying each genome editing enzyme. HEK293T cells were transfected with a doxycycline inducible Cas9 editing enzyme, a cumate inducible ABE, a trimethoprim (TMP) inducible CBE, and a shield 1 inducible CGBE.

Structure (SMILES) | induction of editing enzyme expression, reported by fluorescent protein [1] | expression of genome editing enzyme and fluorescent marker after inducer treatment [2]
COc1cc(Cc2cnc(N)nc2N)cc(OC)c1OC [trimethoprim] | induced CBE | CBE and eGFP were expressed
CC[C@H](C(=O)N1CCCC[C@H]1C(=O)O[C@H](CCc1ccc(OC)c(OC)c1)c1cccc(OCCN2CCOCC2)c1)c1cc(OC)c(OC)c(OC)c1 [Shield 1] | induced CGBE | CGBE and mCherry were expressed
CC(C)c1ccc(C(=O)O)cc1 [cumate] | induced ABE | ABE and BFP were expressed
